Consider one compound from ChEMBL document CHEMBL1154495, “1,5-Benzothiazepine, a versatile pharmacophore: a review” (Eur J Med Chem, 2008).

In this experiment the test system is Human immunodeficiency virus 1. The experiment is described as follows: Antiviral activity against HIV1 infected in human MT4 cells assessed as inhibition of virus-induced cytopathicity. In kind it is functional, organism-based. The following applies: Human immunodeficiency virus 1, MT4. Background: Cytopathic effects are the visible damage that an infection or toxin causes in cultured cells.

One may read the EC50 as the midpoint of the concentration-response curve.

For `CC(C)=CCn1cc2c(c1)S(=O)(=O)c1cc(Cl)ccc1NC2=O`, the EC50 came to 300 nM.
